In brackets after ≈: the same amount, converted by molar mass.
Key:
[1] = Lipophilicity, log P of the compound; type: physicochemical; conditions: octanol/water
[2] = system: Mycobacterium tuberculosis; assay: microbe, parasite or virus in culture; type: functional; conditions: H37Rv ATCC 27294, 672 h
Description: Antitubercular activity against Mycobacterium tuberculosis H37Rv ATCC 27294 after 28 days by agar dilution method

[3] = Cytotoxicity against HEK293T cells at 50 ug/ml after 72 hrs by MTT assay; type: cell-based, HEK-293T; conditions: human, read-out: INH
[4] = Selectivity index, ratio of cytotoxicity against HEK293T cells to antitubercular activity against Mycobacterium tuberculosis H37Rv ATCC 27294; type: toxicity, cell-based, HEK-293T; conditions: human, read-out: Selectivity Index

Structure (SMILES) | logP [1] | MIC [2] [µg/mL] | cytotoxicity at 72 h, 50 ug/ml [3] [%] | selectivity ratio [4]
CCCCc1cn(CC(=O)NC23CC4CC(CC(C4)C2)C3)nn1 | 2.68 | 50 (≈ 158 µM) |  | 
CCCCCc1cn(CC(=O)NC23CC4CC(CC(C4)C2)C3)nn1 | 3.1 | 50 (≈ 151 µM) |  | 
CCCCCCc1cn(CC(=O)NC23CC4CC(CC(C4)C2)C3)nn1 | 3.52 | 50 (≈ 145 µM) |  | 
O=C(Cn1cc(CCCO)nn1)NC12CC3CC(CC(C3)C1)C2 | 0.61 | 6.25 (≈ 19.6 µM) | 20.7 | > 15
O=C(Cn1cc(CCc2ccccc2)nn1)NC12CC3CC(CC(C3)C1)C2 | 3.03 | 50 (≈ 137 µM) |  | 
O=C(Cn1cc(C2(O)CCCC2)nn1)NC12CC3CC(CC(C3)C1)C2 | 1.51 | 50 (≈ 145 µM) |  | 
O=C(Cn1cc(C2(O)CCCCC2)nn1)NC12CC3CC(CC(C3)C1)C2 | 1.93 | 6.25 (≈ 17.4 µM) | 17.5 | > 15
O=C(Cn1cc(-c2ccccc2)nn1)NC12CC3CC(CC(C3)C1)C2 | 2.75 | 50 (≈ 149 µM) |  | 
CC(C)(C)c1ccc(-c2cn(CC(=O)NC34CC5CC(CC(C5)C3)C4)nn2)cc1 | 4.46 | 50 (≈ 127 µM) |  | 
COc1cccc(-c2cn(CC(=O)NC34CC5CC(CC(C5)C3)C4)nn2)c1 | 2.63 | 25 (≈ 68.2 µM) |  | 
COc1ccc(-c2cn(CC(=O)NC34CC5CC(CC(C5)C3)C4)nn2)c(C)c1 | 3.12 | 50 (≈ 131 µM) |  | 
O=C(Cn1cc(-c2ccc([N+](=O)[O-])cc2)nn1)NC12CC3CC(CC(C3)C1)C2 |  | 50 (≈ 131 µM) |  | 
O=C(Cn1cc(-c2ccc(F)cc2F)nn1)NC12CC3CC(CC(C3)C1)C2 | 3.07 | 50 (≈ 134 µM) |  | 
O=C(Cn1cc(-c2ccc(F)c(F)c2)nn1)NC12CC3CC(CC(C3)C1)C2 | 3.07 | 50 (≈ 134 µM) |  | 
O=C(Cn1cc(-c2ccc(C(F)(F)F)cc2)nn1)NC12CC3CC(CC(C3)C1)C2 | 3.68 | 50 (≈ 124 µM) |  | 
O=C(Cn1cc(-c2ccc(Cl)c(Cl)c2)nn1)NC12CC3CC(CC(C3)C1)C2 | 3.87 | 50 (≈ 123 µM) |  | 
CCCCCc1ccc(-c2cn(CC(=O)NC34CC5CC(CC(C5)C3)C4)nn2)cc1 | 4.91 | 6.25 (≈ 15.4 µM) | 18.7 | > 15
CC(=O)c1ccc(C)cc1OCc1cn(CC(=O)NC23CC4CC(CC(C4)C2)C3)nn1 | 2.55 | 50 (≈ 118 µM) |  | 
COc1ccc2cc(-c3cn(CC(=O)NC45CC6CC(CC(C6)C4)C5)nn3)ccc2c1 | 3.63 | 50 (≈ 120 µM) |  | 
O=C(Cn1cc(-c2cc3ccccc3c3ccccc23)nn1)NC12CC3CC(CC(C3)C1)C2 | 4.75 | 3.12 (≈ 7.15 µM) | 20.1 | > 15
O=C(Cn1cc(-c2ccsc2)nn1)NC12CC3CC(CC(C3)C1)C2 | 2.74 | 50 (≈ 146 µM) |  | 
CC[C@@H](CO)NCCN[C@@H](CC)CO [ETHAMBUTOL] |  | 3.13 (≈ 15.3 µM) |  | 
NNC(=O)c1ccncc1 [ISONIAZID] |  | 0.1 (≈ 0.729 µM) |  | 
NC(=O)c1cnccn1 [PYRAZINAMIDE] |  | 50 (≈ 406 µM) |  | 

Source: ChEMBL document CHEMBL3232935, “Design, synthesis and evaluation of 1,2,3-triazole-adamantylacetamide hybrids as potent inhibitors of Mycobacterium tuberculosis” (Bioorg Med Chem Lett, 2014)
